Results: ChEMBL document CHEMBL1667742, “Angiotensin II receptor type 1 (AT1) selective nonpeptidic antagonists--a perspective” (Bioorg Med Chem, 2010)
Positions count from the first letter of the chain named. Blank lines part the entries; values can stand above or below the compound they belong to.

Legend:
[1] = target: T1, Type-1 angiotensin II receptor (Oryctolagus cuniculus, UniProt P34976); assay: Antagonist activity at angiotensin AT1 receptor in rabbit thoracic aortic rings; type: functional; conditions: read-out: pA2 (converted)
T1 sequence (P34976 whole entry): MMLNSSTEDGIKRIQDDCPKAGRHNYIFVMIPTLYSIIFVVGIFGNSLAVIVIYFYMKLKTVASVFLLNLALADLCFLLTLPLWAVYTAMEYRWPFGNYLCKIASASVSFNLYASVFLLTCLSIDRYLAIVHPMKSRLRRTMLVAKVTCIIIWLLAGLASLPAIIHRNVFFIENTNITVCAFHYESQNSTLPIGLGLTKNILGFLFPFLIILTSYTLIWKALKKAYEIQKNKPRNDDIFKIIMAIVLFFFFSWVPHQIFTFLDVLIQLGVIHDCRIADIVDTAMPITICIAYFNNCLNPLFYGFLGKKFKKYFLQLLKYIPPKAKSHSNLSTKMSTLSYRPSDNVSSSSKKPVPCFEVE

[2] = tested on: Homo sapiens; assay: Metabolic stability in iv and po dosed human assessed as conversion of EXP3174; type: ADME, organism-based; conditions: in vivo
[3] = target: T2, Type-1 angiotensin II receptor (Homo sapiens, UniProt P30556); assay: Displacement of [3H]-angiotensin 2 from angiotensin AT1 receptor in human PLC-PRF5 cells; type: cell-based
T2 sequence (P30556 whole entry): T1 sequence (P34976 whole entry) with M2I, A49V, V254I, V270I, H272R, K311R, S349T, V353A

[4] = target: T2, Type-1 angiotensin II receptor; assay: Antagonist activity at angiotensin AT1 receptor in human PLC-PRF5 cells; type: functional, cell-based
[5] = target: T2, Type-1 angiotensin II receptor; assay: Binding affinity to angiotensin AT1 receptor
[6] = tested on: Rhesus monkey; assay: Antihypertensive activity in rhesus monkey assessed as inhibition of angiotensin 2-induced pressor response at 10 mg/kg, po after 4 to 24 hrs; type: functional; conditions: Macaca mulatta
[7] = Oral bioavailability in rat; type: ADME, organism-based; conditions: in vivo
[8] = target: T3, Type-1 angiotensin II receptor (Cavia porcellus, UniProt Q9WV26); assay: Binding affinity to angiotensin AT1 receptor in guinea pig adrenal cortex membranes; type: cell membranes, Membrane
T3 sequence (Q9WV26 whole entry): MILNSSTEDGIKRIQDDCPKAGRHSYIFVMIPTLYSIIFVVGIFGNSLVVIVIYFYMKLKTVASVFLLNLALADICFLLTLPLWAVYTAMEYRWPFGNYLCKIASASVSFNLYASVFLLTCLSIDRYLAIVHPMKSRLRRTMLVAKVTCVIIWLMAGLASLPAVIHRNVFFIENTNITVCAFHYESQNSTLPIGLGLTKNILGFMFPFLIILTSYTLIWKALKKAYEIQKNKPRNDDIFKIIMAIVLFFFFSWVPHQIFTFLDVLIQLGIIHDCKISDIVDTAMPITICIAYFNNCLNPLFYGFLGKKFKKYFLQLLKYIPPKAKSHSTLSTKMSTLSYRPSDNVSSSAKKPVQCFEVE

[9] = Binding affinity to angiotensin AT1 receptor in rat liver membranes; type: cell membranes, Membrane
[10] = Oral bioavailability in cynomolgus monkey; type: ADME, organism-based, Macaca fascicularis; conditions: in vivo
[11] = Oral bioavailability in dog; type: ADME, organism-based, Canis lupus familiaris; conditions: in vivo
[12] = target: T1, Type-1 angiotensin II receptor; assay: Displacement of [125I]-Sar1Ile8-angiotensin 2 from angiotensin AT1 receptor in rabbit aortic membranes; type: cell membranes
[13] = target: T4, Type-2 angiotensin II receptor (Homo sapiens) (UniProt P50052); assay: (§1) Binding affinity to angiotensin AT2 receptor; conditions: concentration not given here
T4 sequence (whole entry): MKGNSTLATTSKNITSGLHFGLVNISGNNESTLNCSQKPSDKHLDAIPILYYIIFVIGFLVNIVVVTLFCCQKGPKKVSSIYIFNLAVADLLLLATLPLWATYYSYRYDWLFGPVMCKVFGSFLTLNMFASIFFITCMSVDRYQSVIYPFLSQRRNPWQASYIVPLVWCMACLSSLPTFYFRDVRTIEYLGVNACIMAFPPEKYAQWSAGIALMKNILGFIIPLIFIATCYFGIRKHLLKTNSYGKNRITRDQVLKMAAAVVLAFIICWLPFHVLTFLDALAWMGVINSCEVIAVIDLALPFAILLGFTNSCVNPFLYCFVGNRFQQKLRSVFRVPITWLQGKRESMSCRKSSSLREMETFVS

[14] = target: T5, Type-2 angiotensin II receptor (Homo sapiens, UniProt P50052); assay: as §1
T5 sequence (P50052 whole entry): T4 sequence (whole entry)

[15] = target: T6, Type-1 angiotensin II receptor (Oryctolagus cuniculus) (UniProt P34976); assay: Antagonist activity at angiotensin AT1 receptor in rabbit aorta; type: functional, tissue-based
T6 sequence (whole entry): T1 sequence (P34976 whole entry)

[16] = Displacement of [3H]-angiotensin 2 from angiotensin AT1 receptor in rat liver membranes; type: cell membranes, Membrane
[17] = tested on: Rattus norvegicus; assay: Antihypertensive activity in conscious normotensive rat assessed as inhibition of angiotensin 2-induced pressor response at 1 mg/kg, iv after 6 hrs; type: functional
[18] = target: T1, Type-1 angiotensin II receptor; assay: Antagonist activity at angiotensin AT1 receptor in rabbit aortic strip assessed as inhibition of angiotensin 2-induced contractile response; type: functional; conditions: read-out: pA2 (converted)
[19] = target: T1, Type-1 angiotensin II receptor; assay: Antagonist activity at angiotensin AT1 receptor in rabbit adrenal cortex assessed as inhibition of angiotensin 2-induced […] response; type: functional, tissue-based
[20] = target: T7, Type-1 angiotensin II receptor (Homo sapiens) (UniProt P30556); assay: Ratio of compound Ki to losartan Ki for angiotensin AT1 receptor
T7 sequence (whole entry): T1 sequence (P34976 whole entry) with M2I, A49V, V254I, V270I, H272R, K311R, S349T, V353A

[21] = target: T7, Type-1 angiotensin II receptor (Homo sapiens); assay: (§2) Antagonist activity at angiotensin AT1 receptor; type: functional
[22] = tested on: Rattus norvegicus; assay: Ratio of compound ED50 to losartan ED50 for po dosed renal hypertensive rat model; type: functional
[23] = species on record: Rattus norvegicus; assay: Antihypertensive activity in spontaneous hypertensive rat model assessed as reduction of blood pressure; type: functional
[24] = target: T2, Type-1 angiotensin II receptor; assay: as §2; type: functional
[25] = tested on: Rattus norvegicus; assay: Inhibition of angiotensin 2-induced response in intraduodenally dosed pithed normotensive rat; type: functional

Kb [1]: 5.01 nM
SMILES: CCCCc1nc2cc(OC)cc(C(=O)O)c2n1Cc1ccc(N(CC)C(C(=O)O)c2ccccc2)cc1 (centres undefined)

Stability [2]: 14%
SMILES: CCCCc1nc(Cl)c(CO)n1Cc1ccc(-c2ccccc2-c2nn[nH]n2)cc1 [LOSARTAN]

Ki [3]: 25 nM
IC50 [4]: 22 nM
SMILES: CCCCN1CC2(CN1Cc1ccc(-c3ccccc3-c3nnn[nH]3)cc1)C(=O)CCC2=O

Ki [5]: 1.7 nM
bioavailability [7]: 44%
SMILES: CCCCc1nn(-c2ccccc2C(F)(F)F)c(=O)n1Cc1ccc(-c2ccccc2S(=O)(=O)NC(=O)c2ccccc2)cc1 [L-159913]
inhibition in vivo at 10 mg/kg [6]: 76%

IC50 [8]: 370 nM
SMILES: Cc1cc(Sc2ccc(-c3ccccc3-c3nn[nH]n3)cc2)c2ccccc2n1

Ki [9]: 0.76 nM
bioavailability [10]: > 50%
bioavailability [11]: > 50%
bioavailability [7]: > 50%
SMILES: CCCN(Cc1ccc(-c2ccccc2-c2nn[nH]n2)cc1)c1ncccc1C(=O)O

IC50 [12]: 1.2 nM
SMILES: CCCCc1nn(CC(C)(C)C)c(=O)n1Cc1ccc(-c2ccccc2-c2nnn[nH]2)cc1

inhibition [13]: 90%
IC50 [14]: 2.3 nM
SMILES: CCc1nc2c(C)cc(C)nc2n1Cc1ccc(-c2ccsc2-c2nn[nH]n2)cc1

Ki [3]: 10 nM
IC50 [4]: 12 nM
SMILES: CCCCN1CC2(CN1Cc1ccc(-c3ccccc3S(=O)(=O)NC(=O)c3ccccc3)cc1)C(=O)CCC2=O

pKb [15]: 9
pKi [16]: 9.3
SMILES: CCc1nc(C2CC2)c(C(N)=O)n1Cc1ccc2oc(-c3ccccc3NS(=O)(=O)C(F)(F)F)c(Br)c2c1

SMILES: CCCCc1nn(-c2ccccc2C(F)(F)F)c(=O)n1Cc1ccc(-c2ccccc2-c2nn[nH]n2)cc1
inhibition in vivo at 1 mg/kg [17]: 70%

Kb [18]: 12.6 nM
IC50 [19]: 100 nM
SMILES: CCOC(=O)/C=C1\N(Cc2ccc(-c3ccccc3-c3nn[nH]n3)cc2)C(=O)CC1(CC)CC

Ratio Ki [20]: 10
Kb [21]: 0.45 nM
SMILES: CCCCC1=NC(Cl)=C(C(=O)O)C(C)N1Cc1ccc(-c2ccccc2-c2nn[nH]n2)cc1 (centres undefined)
Ratio ED50 [22]: 20
ED50 [23]: 0.08 µmol/kg

IC50 [24]: 1.8 nM
SMILES: CC1CC(=O)NN=C1c1ccc2nc(C3CC3)n(Cc3ccc(-c4ccccc4-c4nn[nH]n4)cc3)c2c1 (centres undefined)
inhibition (INH) [25]: 80%

SMILES: CCc1nc2c(C)cc(C)nn2c1Cc1ccc(-c2ccccc2-c2nn[nH]n2)cc1
inhibition in vivo at 1 mg/kg [17]: 90%
